Laboratory results taken from the kinase profiling compilation of Christmann-Franck et al. (2016).

What was measured:
Assay in all cases: KINOMEscan competition binding
Settings in all cases: compound 10.0 µM
[1] = target: SNRK (human) (UniProt Q9NRH2)
[2] = target: PRKCQ (human) (UniProt Q04759)
[3] = test system: FLT3 (human), P36888 [ITD]
[4] = target: SLK (human) (UniProt Q9H2G2)
[5] = target: CSNK1G2 (human) (UniProt P78368)
[6] = target: RPS6KA3 KD1 (human) (UniProt P51812)
[7] = target: PRKD3 (human) (UniProt O94806)
[8] = target: MAP2K7 (human) (UniProt O14733)
[9] = target: PKMYT1 (human) (UniProt Q99640)
[10] = test system: EGFR (human), P00533 [T790M]
[11] = test system: EGFR (human), P00533 [T790M/L858R]
[12] = target: MARK4 (human) (UniProt Q96L34)
[13] = test system: FLT3 (human), P36888 [D835H]
[14] = target: PTK2 (human) (UniProt Q05397)
[15] = target: MET (human) (UniProt P08581)
[16] = target: STK16 (human) (UniProt O75716)
[17] = target: IGF1R (human) (UniProt P08069)
[18] = target: ULK3 (human) (UniProt Q6PHR2)
[19] = test system: ABL1 (human), P00519 [M351T]
[20] = target: CSNK1A1L (human) (UniProt Q8N752)
[21] = target: FES (human) (UniProt P07332)
[22] = target: NIM1 (human) (UniProt Q8IY84)
[23] = target: BRSK1 (human) (UniProt Q8TDC3)
[24] = test system: BRAF (human), P15056 [V600E]
[25] = target: MLTK (human) (UniProt Q9NYL2)
[26] = target: DAPK1 (human) (UniProt P53355)
[27] = target: ERBB2 (human) (UniProt P04626)
[28] = target: TTK (human) (UniProt P33981)
[29] = target: CDKL1 (human) (UniProt Q00532)
[30] = target: STK4 (human) (UniProt Q13043)
[31] = target: PAK2 (human) (UniProt Q13177)
[32] = target: PRKCE (human) (UniProt Q02156)
[33] = target: ACVR1 (human) (UniProt Q04771)
[34] = target: RPS6KA6 KD1 (human) (UniProt Q9UK32)
[35] = test system: EGFR (human), P00533 [L861Q]
[36] = target: TLK1 (human) (UniProt Q9UKI8)
[37] = test system: MET (human), P08581 [Y1235D]
[38] = test system: PIK3CA (human), P42336 [H1047Y]
[39] = target: IKBKB (human) (UniProt O14920)
[40] = target: CDC42BPG (human) (UniProt Q6DT37)
[41] = target: WEE1 (human) (UniProt P30291)

Sequence of TLK1 (human) (Q9UKI8 whole entry, looked up): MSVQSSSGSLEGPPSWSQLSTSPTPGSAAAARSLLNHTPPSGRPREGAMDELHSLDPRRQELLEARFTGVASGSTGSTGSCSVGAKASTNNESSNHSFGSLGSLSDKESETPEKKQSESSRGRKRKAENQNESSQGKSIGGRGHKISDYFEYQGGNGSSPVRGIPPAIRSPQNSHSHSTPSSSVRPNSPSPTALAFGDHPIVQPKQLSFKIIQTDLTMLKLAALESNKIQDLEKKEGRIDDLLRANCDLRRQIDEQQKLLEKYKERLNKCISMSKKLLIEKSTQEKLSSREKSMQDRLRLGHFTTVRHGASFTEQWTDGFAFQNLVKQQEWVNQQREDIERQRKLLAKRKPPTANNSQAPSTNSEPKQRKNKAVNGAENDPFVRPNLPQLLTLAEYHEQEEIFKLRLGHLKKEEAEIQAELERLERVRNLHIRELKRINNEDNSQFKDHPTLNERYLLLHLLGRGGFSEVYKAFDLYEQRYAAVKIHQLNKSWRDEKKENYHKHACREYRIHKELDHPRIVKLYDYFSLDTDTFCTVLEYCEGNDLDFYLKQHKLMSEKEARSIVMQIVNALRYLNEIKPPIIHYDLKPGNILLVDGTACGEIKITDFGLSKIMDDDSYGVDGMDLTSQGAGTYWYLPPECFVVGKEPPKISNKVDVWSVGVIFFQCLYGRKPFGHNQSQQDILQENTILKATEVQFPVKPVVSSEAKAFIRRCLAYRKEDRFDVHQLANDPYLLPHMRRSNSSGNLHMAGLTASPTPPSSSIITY
Sequence of IGF1R (human) (P08069 whole entry, looked up): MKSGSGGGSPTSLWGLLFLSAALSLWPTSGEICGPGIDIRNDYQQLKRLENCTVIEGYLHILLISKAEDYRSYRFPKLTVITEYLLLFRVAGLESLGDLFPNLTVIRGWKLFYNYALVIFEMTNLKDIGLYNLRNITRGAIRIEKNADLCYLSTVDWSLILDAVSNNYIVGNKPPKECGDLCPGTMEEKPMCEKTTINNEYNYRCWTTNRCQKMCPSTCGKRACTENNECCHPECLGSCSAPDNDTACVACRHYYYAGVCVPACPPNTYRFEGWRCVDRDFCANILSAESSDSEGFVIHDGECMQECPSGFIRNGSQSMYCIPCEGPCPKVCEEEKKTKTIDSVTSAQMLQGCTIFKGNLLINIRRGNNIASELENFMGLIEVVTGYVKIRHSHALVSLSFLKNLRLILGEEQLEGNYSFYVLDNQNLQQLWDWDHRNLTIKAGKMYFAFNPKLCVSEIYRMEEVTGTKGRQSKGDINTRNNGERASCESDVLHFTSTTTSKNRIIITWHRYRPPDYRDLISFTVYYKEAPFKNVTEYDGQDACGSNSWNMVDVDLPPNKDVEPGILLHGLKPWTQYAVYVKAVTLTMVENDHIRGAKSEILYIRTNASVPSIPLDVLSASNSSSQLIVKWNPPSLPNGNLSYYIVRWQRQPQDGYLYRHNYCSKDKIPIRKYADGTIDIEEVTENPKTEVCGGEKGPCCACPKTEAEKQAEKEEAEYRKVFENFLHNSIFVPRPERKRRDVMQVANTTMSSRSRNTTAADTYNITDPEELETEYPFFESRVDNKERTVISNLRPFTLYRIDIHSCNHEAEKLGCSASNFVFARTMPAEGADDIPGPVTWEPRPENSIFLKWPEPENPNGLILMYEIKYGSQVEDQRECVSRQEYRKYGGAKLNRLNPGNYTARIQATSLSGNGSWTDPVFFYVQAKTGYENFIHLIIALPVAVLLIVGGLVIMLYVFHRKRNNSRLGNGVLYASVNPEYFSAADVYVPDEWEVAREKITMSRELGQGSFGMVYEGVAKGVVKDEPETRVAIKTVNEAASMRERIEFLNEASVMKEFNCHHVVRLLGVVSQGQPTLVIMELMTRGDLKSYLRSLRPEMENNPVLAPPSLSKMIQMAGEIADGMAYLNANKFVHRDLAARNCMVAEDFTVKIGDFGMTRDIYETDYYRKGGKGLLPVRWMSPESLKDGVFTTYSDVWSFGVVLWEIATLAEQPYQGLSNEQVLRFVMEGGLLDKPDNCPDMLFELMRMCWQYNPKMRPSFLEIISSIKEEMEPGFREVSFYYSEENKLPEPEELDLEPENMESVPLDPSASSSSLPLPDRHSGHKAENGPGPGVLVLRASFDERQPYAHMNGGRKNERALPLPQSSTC
Sequence of PIK3CA (human), P42336 [H1047Y] (P42336 whole entry H1047Y, looked up): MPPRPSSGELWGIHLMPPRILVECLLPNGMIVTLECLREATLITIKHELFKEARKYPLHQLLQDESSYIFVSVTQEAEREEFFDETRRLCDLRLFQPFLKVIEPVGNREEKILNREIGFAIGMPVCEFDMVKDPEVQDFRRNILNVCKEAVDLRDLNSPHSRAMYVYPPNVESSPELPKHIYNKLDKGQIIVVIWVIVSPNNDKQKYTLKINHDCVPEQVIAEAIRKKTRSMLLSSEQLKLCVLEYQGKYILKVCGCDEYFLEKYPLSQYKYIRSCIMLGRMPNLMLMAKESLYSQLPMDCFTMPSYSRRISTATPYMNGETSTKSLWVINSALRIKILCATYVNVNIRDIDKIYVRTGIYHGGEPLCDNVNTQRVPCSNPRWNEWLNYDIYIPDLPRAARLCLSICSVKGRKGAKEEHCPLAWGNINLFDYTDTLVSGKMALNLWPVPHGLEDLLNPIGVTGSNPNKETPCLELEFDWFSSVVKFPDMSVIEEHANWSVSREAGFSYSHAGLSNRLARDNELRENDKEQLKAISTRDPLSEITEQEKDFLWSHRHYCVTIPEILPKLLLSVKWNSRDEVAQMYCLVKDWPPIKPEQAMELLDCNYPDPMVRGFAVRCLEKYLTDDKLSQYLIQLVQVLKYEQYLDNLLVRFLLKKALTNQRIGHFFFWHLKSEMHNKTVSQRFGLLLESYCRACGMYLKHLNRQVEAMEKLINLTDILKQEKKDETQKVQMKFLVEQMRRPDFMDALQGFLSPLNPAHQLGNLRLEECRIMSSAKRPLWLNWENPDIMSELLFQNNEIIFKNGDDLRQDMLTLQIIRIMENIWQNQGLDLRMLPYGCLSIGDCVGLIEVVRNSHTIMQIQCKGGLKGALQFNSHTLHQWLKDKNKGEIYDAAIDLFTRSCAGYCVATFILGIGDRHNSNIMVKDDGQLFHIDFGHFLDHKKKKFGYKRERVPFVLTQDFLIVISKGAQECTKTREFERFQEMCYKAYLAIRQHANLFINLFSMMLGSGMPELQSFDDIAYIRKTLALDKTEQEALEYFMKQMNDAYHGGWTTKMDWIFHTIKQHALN
Sequence of ULK3 (human) (Q6PHR2 whole entry, looked up): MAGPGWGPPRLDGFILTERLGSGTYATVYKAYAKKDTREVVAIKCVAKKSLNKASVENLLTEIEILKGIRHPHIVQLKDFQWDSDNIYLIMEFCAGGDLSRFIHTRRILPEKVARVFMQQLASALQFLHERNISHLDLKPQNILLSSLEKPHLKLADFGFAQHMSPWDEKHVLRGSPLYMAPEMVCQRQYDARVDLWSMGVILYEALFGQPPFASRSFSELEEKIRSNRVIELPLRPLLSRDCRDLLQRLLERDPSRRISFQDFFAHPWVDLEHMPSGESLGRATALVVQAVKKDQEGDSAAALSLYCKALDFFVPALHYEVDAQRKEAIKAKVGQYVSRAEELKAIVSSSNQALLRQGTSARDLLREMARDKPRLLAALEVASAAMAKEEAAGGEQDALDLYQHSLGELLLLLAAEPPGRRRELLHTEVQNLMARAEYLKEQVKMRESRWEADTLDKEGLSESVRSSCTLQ
Sequence of PTK2 (human) (Q05397 whole entry, looked up): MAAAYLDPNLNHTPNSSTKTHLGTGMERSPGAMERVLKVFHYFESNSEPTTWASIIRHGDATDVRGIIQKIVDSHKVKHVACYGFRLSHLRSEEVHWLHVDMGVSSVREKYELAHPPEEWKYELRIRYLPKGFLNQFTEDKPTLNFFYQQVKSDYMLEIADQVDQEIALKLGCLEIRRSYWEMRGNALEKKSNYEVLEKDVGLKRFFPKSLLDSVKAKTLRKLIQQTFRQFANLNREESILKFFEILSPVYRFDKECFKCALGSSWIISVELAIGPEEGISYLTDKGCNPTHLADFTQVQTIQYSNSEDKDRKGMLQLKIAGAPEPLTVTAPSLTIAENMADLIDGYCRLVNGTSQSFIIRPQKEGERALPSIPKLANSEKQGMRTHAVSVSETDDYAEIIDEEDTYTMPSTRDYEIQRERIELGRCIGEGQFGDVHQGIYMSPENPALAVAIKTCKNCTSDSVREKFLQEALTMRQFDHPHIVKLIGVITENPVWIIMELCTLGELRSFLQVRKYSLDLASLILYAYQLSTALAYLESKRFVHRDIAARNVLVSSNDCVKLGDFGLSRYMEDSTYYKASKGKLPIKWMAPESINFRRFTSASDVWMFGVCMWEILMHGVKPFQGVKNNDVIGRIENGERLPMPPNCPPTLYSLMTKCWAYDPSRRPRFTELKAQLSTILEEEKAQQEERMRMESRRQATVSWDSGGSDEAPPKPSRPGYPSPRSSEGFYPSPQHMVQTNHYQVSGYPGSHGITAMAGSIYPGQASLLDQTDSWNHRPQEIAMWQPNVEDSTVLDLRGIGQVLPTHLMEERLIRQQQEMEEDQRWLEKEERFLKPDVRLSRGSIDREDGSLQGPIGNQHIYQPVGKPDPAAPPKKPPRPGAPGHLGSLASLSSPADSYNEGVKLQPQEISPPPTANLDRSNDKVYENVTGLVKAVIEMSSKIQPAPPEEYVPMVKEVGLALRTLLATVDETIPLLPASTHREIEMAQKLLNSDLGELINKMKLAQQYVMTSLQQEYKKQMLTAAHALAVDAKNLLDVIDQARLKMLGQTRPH
Sequence of CSNK1A1L (human) (Q8N752 whole entry, looked up): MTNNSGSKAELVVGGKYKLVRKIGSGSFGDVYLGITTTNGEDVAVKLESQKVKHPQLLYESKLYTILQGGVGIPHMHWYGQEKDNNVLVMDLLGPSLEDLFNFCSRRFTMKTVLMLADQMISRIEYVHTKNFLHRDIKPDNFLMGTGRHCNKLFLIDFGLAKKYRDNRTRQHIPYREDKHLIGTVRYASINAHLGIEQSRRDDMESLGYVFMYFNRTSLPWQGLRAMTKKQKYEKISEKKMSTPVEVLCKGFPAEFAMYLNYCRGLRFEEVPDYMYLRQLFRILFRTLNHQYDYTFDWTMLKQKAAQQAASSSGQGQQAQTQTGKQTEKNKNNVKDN

COc1cc(C(=O)N2CCC(N3CCN(C)CC3)CC2)ccc1Nc1ncc2c(n1)N(C)c1ccccc1C(=O)N2C
kinase still bound, per cent of control [1]: 94%
kinase still bound, per cent of control [2]: 100%
kinase still bound, per cent of control [3]: 100%
kinase still bound, per cent of control [4]: 100%
kinase still bound, per cent of control [5]: 100%
kinase still bound, per cent of control [6]: 77%
kinase still bound, per cent of control [7]: 42%
kinase still bound, per cent of control [8]: 100%
kinase still bound, per cent of control [9]: 80%
kinase still bound, per cent of control [10]: 88%
kinase still bound, per cent of control [11]: 84%
kinase still bound, per cent of control [12]: 78%
kinase still bound, per cent of control [13]: 100%
kinase still bound, per cent of control [14]: 34%
kinase still bound, per cent of control [15]: 100%
kinase still bound, per cent of control [16]: 62%
residual activity [17]: 96%
kinase still bound, per cent of control [18]: 100%
kinase still bound, per cent of control [19]: 94%
kinase still bound, per cent of control [20]: 100%
kinase still bound, per cent of control [21]: 84%
kinase still bound, per cent of control [22]: 100%
kinase still bound, per cent of control [23]: 81%
kinase still bound, per cent of control [24]: 100%
kinase still bound, per cent of control [25]: 99%
kinase still bound, per cent of control [26]: 73%
kinase still bound, per cent of control [27]: 100%
kinase still bound, per cent of control [28]: 28%
residual activity [29]: 78%
kinase still bound, per cent of control [30]: 100%
kinase still bound, per cent of control [31]: 65%
kinase still bound, per cent of control [32]: 100%
kinase still bound, per cent of control [33]: 98%
kinase still bound, per cent of control [34]: 92%
kinase still bound, per cent of control [35]: 100%
kinase still bound, per cent of control [36]: 100%
kinase still bound, per cent of control [37]: 100%
kinase still bound, per cent of control [38]: 71%
kinase still bound, per cent of control [39]: 89%
kinase still bound, per cent of control [40]: 100%
kinase still bound, per cent of control [41]: 100%
